According to US20200206198A1, “CFTR CHANNEL ACTIVATOR FOR USE IN THE TREATMENT AND/OR PREVENTION OF GLUTEN SENSITIVITY CONDITIONS” (priority 2017, published 2020):

Tested on: Caco-2 cells
Assay: Innate immune activation in Caco-2 cells (NLRP3, caspase-1, IL-15, NF-κB p65)
Format: cell-based, human
Experimental: Human colon adenocarcinoma-derived Caco-2 and T84 cells were obtained from the ATCC. Cells were maintained in T25 flask in Modified Eagle Medium (MEM) for Caco-2, or Ham's F12+DMEM (1:1) for T84, supplemented with 10% fetal bovine serum (FBS), 2 mM Glutamine+1% Non Essential Amino Acids (NEAA) and the antibiotics penicillin\streptomycin (100 units/ml) (all reagents from Lonza) (Luciani, A., et al. 2010. Cells were grown in Transwells (Corning, 3470 or 3460) under the normal condition (Luciani, A., et al. 2012). Briefly, 8×10^4 or 5×10^5 cells were seeded in 6.5-mm diameter or 12-mm diameter, respectively, and grown until the RT reached 800 to 1,200 Ω·cm2. Transwells with a pore size of 0.4 μm were used. Medium in both the apical and basolateral chambers was changed every other day. Cells were treated with 20 μg/ml of either α-gliadin peptide P31-43 or […]-69 or scrambled PGAV or modified P31-43 either biotin-tagged or not, for different time point (from 1 h short challenge up to 24 h). Cells were also treated with 50 or 100 μg/ml of […]-68 or PGAV peptides for 3 h. Caco-2 or T84 cells were also treated with: CFTR potentiators VX-770 (10 μM) or VX-532 (20 μM) (Selleck chemicals) or Genistein (10 μM) (Sigma-Aldrich) or in presence or absence of CFTR inhibitor172 (CFTRinh172, 20 μM) or 3-methyl-adenine (3-MA, 20 μM) (Calbiochem), Z-DON (20 nM, Zedira) or BAPTA-AM (10 μM, Calbiochem). The whole lysate or membrane fraction proteins of cell lines and mice intestine homogenates were obtained from treated and untreated cells or mice as described. The equal amount of protein were resolved by SDS-PAGE gel and blotted with antibodies against: SQSTM1, (Sigma Aldrich, 108k4767) 1:1000, PPARγ (Santa Cruz Biotechnology, sc7273) 1:500, BECN1 (Abcam, ab58878) 1:1000, CFTR clone M3A7 (Abcam, ab4067) 1:500, phospho-ERK1/2 (php42/44, Cell Signaling Technology, #91101) 1:1000, UVRAG (Santa Cruz Biotechnology sc8215) 1:1000, NHERF-1 (BD, 611161) 1:1000, EZRIN (BD, 610603) 1:1000, hVps34 (SigmaV9764) 1:300, biotin (Abcam, ab1227) 1:2000, PKAr2a (BD, 610625) 1:500, Ubiquitin (Cell Signaling clone P4D1, #3936) 1:1000, CHIP (Calbiochem PC711) 1:500, Caspase-1 p10 (M-20) (Santa Cruz Biotechnology, sc-514) 1:200, NLRP3 (Abcam, ab4207), 1:500, IDO1 (monoclonal; cv152) 1:1000^[80], used as primary antibodies. Normalization was performed by probing the membrane with anti-β-actin (Cell Signaling, #4970) 1:1000, anti-Gapdh (Sigma-Aldrich, G8795) 1:1000 and anti-flottilin (Abcam ab15148) 1:1000 antibodies. Immunoprecipitations of endogenous proteins were performed on 500 μg of lysates from Caco-2 cells. The proteins were incubated for 12-18 h at 4° C. with 10 ug\ml of specific antibody followed by the addition of Protein A/G-agarose beads for 4 h at 4° C. The beads were then washed three times with lysis buffer and Laemmli's sample buffer was added to the samples. The membranes were then blotted with: CFTR clone CF3 (Abcam, ab2784) 1:1000, TG2 (clone CUB7402; NeoMarkers) 1:1000, CHIP (Calbiochem PC711) 1:500, Ubiquitin (Cell Signaling clone P4D1 3936), isopeptide (Abcam 422) 1:1000, PKAR2 (BD 610625) 1:500. For cytoplasmic and nuclear extracts human colorectal carcinoma Caco-2 cells were harvested, washed in cold PBS twice, and centrifuged at 6000 rpm for 5 min in cold room to collect pellets. […] The protein concentrations were measured by Bradford protein assay (Protein Reagent, Bio-Rad). […]

| Molecule | NF-κB p65 translocation into the nucleus (Caco-2 cells after incubation with peptide) | effect on P31-43-induced NF-κB p65 nuclear translocation (Caco-2 cells) | effect on P31-43-induced NLRP3 expression (Caco-2 cells) | effect on P31-43-induced caspase-1 cleavage (Caco-2 cells) | effect on P31-43-induced production of IL-15 (Caco-2 cells, ELISA, p<0.001) |
| --- | --- | --- | --- | --- | --- |
| α-gliadin peptide LGQQQPFPPQQPY (SEQ ID 1), induces an enterocyte stress response (P31-43 sequence of alpha-gliadin) | NF-κB p65 translocation into the nucleus was observed | – | – | – | – |
| CC(C)(C)c1cc(C(C)(C)C)c(NC(=O)c2c[nH]c3ccccc3c2=O)cc1O [VX-770, N-(2,4-di-tert-butyl-5-hydroxyphenyl)-4-oxo-1,4-dihydroquinoline-3-carboxamide] | – | suppressed | prevented | prevented | prevented the P31-43-induced production of IL-15 |
